Laboratory results: patent US20020049169A1, “Method for reducing toxicity of combined chemotherapies” (priority 2000, published 2002)
Entries after “also recorded” stand apart in the source; their conditions may differ.

Legend:
Format in all cases: biochemical
human cardiac cytosol [1] = test: Reconstitution of DOX metabolism and DOXol formation, plus or minus taxanes, in human cardiac cytosol; details: for stimulation of DOXol formation (in words): [4Fe-4S]-depleted human cardiac cytosol, DOX 25 μM, taxane 1-50 μM, 4 h; for cytoplasmic conversion of DOX to doxorubicinol: human cardiac cytosol, n=3
Excerpt: (§1) The enzymes of DOX metabolism are strongly species-related. To avoid the potential pitfalls associated with studies in animal models, an in vitro human heart assay was utilized. The assay involves isolation of both cytosolic fractions generating DOXol, and microsomal fractions converting DOX to free radicals.
Reconstitution of DOX Metabolism and DOXol Formation, Plus or Minus Taxanes, in Human Cardiac Cytosol.
(§2) Human myocardium is obtained from patients undergoing aorto-coronary bypass grafting. All samples were routinely disposed of by the surgeons from the lateral aspect of excluded right atrium during cannulation procedures for cardio-pulmonary by-pass. After storage at −80° C., pools of 15-20 samples are processed for cytosol preparation by sequential homogenization, ultracentrifugation and overnight 65% ammonium sulfate precipitation of 105,000 g supernatants. Next, cytosol is dialyzed against 100 mM Tris HCl-40 mM KCl, pH 8.9, diluted to 3 mg protein/ml with the same buffer, and incubated for 15 minutes at room temperature with 100 mM dithiothreitol to promote non-denaturing disassembly of the [4Fe-4S] cluster of cytoplasmic aconitase. This treatment is necessary as reactions of DOXol with [4Fe-4S] clusters would convert this metabolite back to DOX. Sizable amounts of DOXol would therefore go undetected if they reacted with [4Fe-4S] clusters prior to their assay. Unreacted dithiothreitol was eventually removed by sequential gel filtration on (1.5×10 cm) Sepharose 6B columns, protein reprecipitation with 65% ammonium sulfate, and extensive dialysis against 0.3 M NaCl, pH 7.0. Doxorubicin metabolism was reconstituted in 0.5 ml incubations containing cytosol (0.15 mg protein), NADPH (100 μM) and DOX (25 μM), in 0.3 M NaCl (pH 7.0) 37° C. Where indicated ethanol-dissolved taxanes (1-50 μM) were included. Aliquots of taxane-free ethanol (5 μl) were included as appropriate to adjust the final volume to 10 μl in all incubations. After 4 h DOX and DOXol were extracted with 2 ml of CHCl3/CH3OH (1:1) and separated by previously validated two-dimensional TLC on (20×20 cm) […] F524 Silica Gel Plates, using CHCl3/CH3OH/CH3COOH/H2O (80:20:14:6) as mobile phase in either dimension. Doxorubicinol was identified by cochromatography with (S)-DOXol from Streptomyces peucetius or (S)(R)-DOXol purified after NaBH4 reduction of DOX. Where indicated incubations were prepared by replacing DOX with DOX aglycone and by measuring formation of DOXol aglycone. The latter was separated from DOX aglycone by using CHCl3/CH3OH/CH3COOH (100:2:5) and CH3COOC2H5—CH3CH2OH—CH3COOH—H2O (80:10:5:5) in the first and second dimension, respectively. DOX aglycone was purified after thermoacid hydrolysis of DOX.

human cardiac cytosol [2] = test: Conversion of DOX aglycone into DOXol aglycone, plus or minus taxanes, in human cardiac cytosol; details: for stimulation of conversion of DOX aglycone into DOXol aglycone (in words): DOX aglycone in place of DOX, plus taxane; for cytoplasmic conversion of doxorubicinone to doxorubicinolone: n=3
Excerpt: as §1, §2

[3] = system: NADPH cytochrome P-450 reductase; test: NADPH oxidation by deoxycholate-solubilized microsomes of human heart, plus or minus taxanes; details: 10 μM DOX, 1-10 μM taxane
Method: (§3) Reconstitution of DOX Metabolism and Free Radical Formation, Plus or Minus Taxanes, in Human Cardiac Microsomes.
(§4) 105,000 g pellets from human myocardium homogenates are solubilized with deoxycolate and reconstituted at the final concentration of 0.025 mg prot/ml with 10 μM DOX, 1-10 μM taxane, 0.1 mM NADPH, in 0.3 M NaCl, pH 7.0, 37° C.
(§5) Electron flow from NADPH cytochrome P-450 reductase to the quinone moiety of DOX is detected by monitoring NADPH oxidation. Redox coupling of the semiquinone with oxygen is detected by monitoring formation of the superoxide anion radical with the superoxide dismutase-inhibitable reduction of cytochrome c (25 μM). These assays are performed in a Hewlett Packard 8453A UV/VIS/NIR spectrometer equipped with computer-assisted corrections for scatter and turbidity.

human cardiac microsomes = test: Superoxide anion formation (superoxide dismutase-inhibitable reduction of cytochrome c) by deoxycholate-solubilized human cardiac microsomes; details: for effect of taxane on DOX-dependent superoxide anion formation (in words): DOX plus 10 μM taxane; for generation of superoxide anion radicals in microsomal fractions: human cardiac microsomes, n=4-10
Method: as §3, §4, §5

[4] = deoxycholate-solubilized microsomes
[5] = taxane 1 μM with doxorubicinone
[6] = DOX alone, no taxane (baseline)

Row | effect on NADPH oxidation in the presence of DOX (in words) [3] | generation of superoxide anion radicals in microsomal fractions (human cardiac microsomes; [6]) [nmol/mg prot./min] | generation of superoxide anion radicals in microsomal fractions (human cardiac microsomes; taxane 10 μM with DOX) [nmol/mg prot./min] | SMILES | stimulation of DOXol formation (in words) (human cardiac cytosol [1]) | stimulation of conversion of DOX aglycone into DOXol aglycone (in words) (human cardiac cytosol [2]) | effect of taxane on DOX-dependent superoxide anion formation (in words) (human cardiac microsomes; [4]) | cytoplasmic conversion of DOX to doxorubicinol (human cardiac cytosol [1]; taxane 1 μM with DOX) [nmol/mg prot./4 h] | cytoplasmic conversion of doxorubicinone to doxorubicinolone (human cardiac cytosol [2]; [5]) [nmol/mg prot./4 h] | cytoplasmic conversion of DOX to doxorubicinol (human cardiac cytosol [1]; [6]) [nmol/mg prot./4 h] | effect of DOX on superoxide anion formation (in words) (human cardiac microsomes; deoxycholate-solubilized microsomes, DOX without taxane) | cytoplasmic conversion of doxorubicinone to doxorubicinolone (human cardiac cytosol [2]; doxorubicinone alone, no taxane (baseline)) [nmol/mg prot./4 h]
1 | appeared to inhibit NADPH oxidation |  |  | CSCO[C@H]1C[C@H]2OC[C@@]2(OC(C)=O)[C@H]2[C@H](OC(=O)c3ccccc3)[C@]3(O)C[C@H](OC(=O)[C@H](O)[C@@H](NC(=O)c4ccccc4)c4ccccc4)C(C)=C([C@@H](OC(C)=O)C(=O)[C@]12C)C3(C)C [7-methylthiomethyl taxol] | did not increase; also recorded: did not stimulate DOXol formation at any of the concentrations tested | did not increase; also recorded: has not been found to stimulate the formation of DOXol aglycone | did not increase; also recorded: did not afford any significant stimulation |  |  |  |  | 
2 |  |  |  | CC(=O)O[C@@]12CO[C@@H]1C[C@H](O)[C@@]1(C)C(=O)[C@H](O)C3=C(C)[C@@H](OC(=O)[C@H](O)[C@@H](NC(=O)OC(C)(C)C)c4ccccc4)C[C@@](O)([C@@H](OC(=O)c4ccccc4)[C@H]21)C3(C)C [DCT, docetaxel] | stimulate DOXol formation | able to stimulate the conversion of DOX aglycone into DOXol aglycone | significant increase in superoxide formation | 1.2±0.2 | 1.3±0.2 |  |  | 
3 |  | 1.6±0.1 |  | COc1cccc2c1C(=O)c1c(O)c3c(c(O)c1C2=O)C[C@@](O)(C(=O)CO)C[C@@H]3O[C@H]1C[C@H](N)[C@H](O)[C@H](C)O1 [DOX, doxorubicin] |  |  |  |  |  | 0.46±0.04 | able to enhance superoxide anion formation | 
4 | able to stimulate NADPH oxidation |  | 2.2±0.2 | CC(=O)O[C@H]1C(=O)[C@@]2(C)[C@H]([C@H](OC(=O)c3ccccc3)[C@]3(O)C[C@H](OC(=O)[C@H](O)[C@@H](NC(=O)c4ccccc4)c4ccccc4)C(C)=C1C3(C)C)[C@]1(OC(C)=O)CO[C@@H]1C[C@@H]2O [PTX, paclitaxel] | stimulate DOXol formation | able to stimulate the conversion of DOX aglycone into DOXol aglycone | significant increase in superoxide formation | 1.1±0.2 | 1.4±0.2 |  |  | 
5 |  |  |  | COc1cccc2c1C(=O)c1c(O)c3c(c(O)c1C2=O)C[C@@](O)(C(=O)CO)C[C@@H]3O [doxorubicinone] |  |  |  |  |  |  |  | 0.8±0.1
